Where two headings read alike, the source gives them in different places.
Assay: protection from convulsions resulting from the administration of pentylenetetrazole (anti-anxiety test, rats, oral)
Format: in vivo
Details: Rattus norvegicus, read-out: Median Effective Oral Dose ED50
Description: The anti-anxiety properties of these compounds have been established in a test which indicates anxiolytic activity by a measure of protection from convulsions resulting from the administration of pentylenetetrazole. Graded dose levels of the compounds are administered orally, in a 2% starch vehicle, to groups of at least 5 rats. At the estimated time of peak effect, the rats are treated intravenously with pentylenetetrazole at a dose of 21 to 23 mg./kg. of body weight. This dose is estimated to cause clonic seizures in 99% of unprotected rats. The effective dose of the test compound for protection of 50% of the animals (ED50) is calculated by the method of D. H. Finney in Statistical Methods in Biological Assay, Second Edition, Hafner Publishing Co., New York, 1964, pp. 456-457. The results of this test on representative compounds of the present invention are given in the following table in comparison with meprobromate which is tested in the same manner. It has been reported [R. T. Hill and D. H. Tedeschi, "Animal Testing and Screening Procedures in Evaluating Psychotropic Drugs" in An Introduction to Psychopharmacology, Eds. R. R. Rech and K. E. Moore, Raven Press, New York, pp. 237-288 (1971)] that there is a high degree of correlation between antagonism of pentylenetetrazole seizures in rats and anti-anxiety effects in higher warm-blooded animals.

[1] = oral, 2% starch vehicle, rats (at least 5 per group), pentylenetetrazole 21 to 23 mg./kg. intravenously at estimated time of peak effect, protection of 50% of animals

With O=C(CCN1CCCCC1)N1CC2CCCN2Cc2ccccc21 (single isomer, unassigned; (-)) [(-)-2,3,5,10,11,11a-Hexahydro-10-(3-piperidinopropionyl)-1H-pyrrolo[2,1-c][1,4]benzodiazepine] the ED50 [1] was 16 mg/kg.
In the case of O=C(CCN1CCCC1)N1CC2CCCN2Cc2ccccc21 (single isomer, unassigned; (-)) [(-)-2,3,5,10,11,11a-Hexahydro-10-[3-(1-pyrrolidinyl)-propionyl]-1H-pyrrolo[2,1-c] [1,4]benzodiazepine], the ED50 [1] is reported as 57 mg/kg.
O=C(CCN1CCCC1)N1CC2CCCN2Cc2cc(Cl)ccc21 (single isomer, unassigned; (-)) [(-)-7-Chloro-2,3,5,10,11,11a-hexahydro-10-[3-(1-pyrrolidinyl)-propionyl]-1H-pyrrolo[2,1-c][1,4]benzodiazepine] showed an ED50 [1] of 7 mg/kg.
Compound CCCC(C)(COC(N)=O)COC(N)=O [meprobromate, reference compound] has an ED50 (po) of 22 mg/kg.
